{
  "source": "paper PMC4725915",
  "about": "“Ruthenium(II) Complexes with 2-Phenylimidazo[4,5-f][1,10]phenanthroline Derivatives that Strongly Combat Cisplatin-Resistant Tumor Cells” (Scientific Reports, 2016)",
  "format_in_all_cases": "cell-based, human",
  "key": {"[1]": {"system": "A549R MCTSs", "assay": "Growth inhibition of drug-treated MCTSs (size by imaging)", "conditions": "1.0 and 2.0 μM", "from_the_text": "Traditional research on the efficacy of cancer drugs is usually performed in two-dimensional (2-D) cell cultures, which may not be a true indicator of the in vivo effectiveness of cancer treatments. This is in part due to the absence of cell-cell or cell-extracellular matrix interactions in 2-D cell models. Therefore, the development of cell culture models that can close the gap between conventional 2-D cell experiments and animal studies is necessary to study the cytotoxicity and anti-proliferative activities of drugs. Multicellular tumor spheroids (MCTSs) are heterogeneous cellular aggregates that have properties of solid tumors, such as nutrient and oxygen gradients, hypoxic/necrotic regions, cell-cell matrix interactions, and gene expression.\nMCTSs were cultured using the liquid overlay method. A549R cells in the exponential growth phase were dissociated by a trypsin/EDTA solution to gain single-cell suspensions. A number of 3000 diluted A549R cells were transferred to 1.5% agarose-coated transparent 96-well plates with 200 μL of DMEM containing 10% serum. The single cells formed MCTS aggregates approximately 400 μm in diameter after three days with 5% CO2 and 20% O2 at 37 °C. […]"}, "[2]": {"system": "A549R cells", "assay": "AO/EB staining apoptosis assay", "conditions": "0.50–2.0 μM", "from_the_text": "Cell apoptosis is a naturally occurring, programmed and targeted cellular death mechanism that is very complex and is regulated by some proteins. This process is also greatly affected by extrinsic conditions. Therefore, it is important to study the influence of drug-induced cellular apoptosis. Firstly, the induction of A549R cell apoptosis by complex 4 was investigated by apoptosis assays using AO/EB staining and fluorescence microscopy. […] Necrotic cells are stained in red but have nuclear morphologies that resemble those of viable cells."}, "[3]": {"system": "cancer cell lines (HeLa, A549, A549R)", "assay": "MTT cytotoxicity, all tested cancer cell lines taken together", "conditions": "48 h, read-out: IC50 toward all the tested cancer cell lines", "description": "Compounds 1–4 were evaluated against three tumor cell lines derived from different tissues, including the cervix (HeLa), lung (A549) and cisplatin-resistant lung (A549R) tissues. For comparison, the cytotoxicity of cisplatin was also evaluated. As a control, the toxicities of the complexes were also tested against the normal human cell line (LO2).\nThe cytotoxicity of the ruthenium complexes and cisplatin were determined by an MTT assay. Briefly, cells were seeded into 96-well microtiter plates at 1 × 10^4 cells per well and grown overnight at 37 °C in a 5% CO2 incubator; then, different concentrations of the complexes in cell culture medium were added to the cultures. The plates were then incubated in an incubator for 48 h under the same conditions. The stock MTT dye solution (15 μL, 5 mg/mL) was added to each well. After 4 h of incubation, the cultures were removed and 150 μL of DMSO was added to each well. The optical density of each well was measured on a microplate spectrophotometer at a wavelength of 595 nm."}, "[4]": {"system": "A549R MCTSs", "assay": "Cytotoxicity test on 3D MCTSs (Cell TiterGlo ATP)", "conditions": "A549R MCTSs (~400 μm in diameter), 48 h", "description": "MCTSs were cultured using the liquid overlay method. A549R cells in the exponential growth phase were dissociated by a trypsin/EDTA solution to gain single-cell suspensions. A number of 3000 diluted A549R cells were transferred to 1.5% agarose-coated transparent 96-well plates with 200 μL of DMEM containing 10% serum. The single cells formed MCTS aggregates approximately 400 μm in diameter after three days with 5% CO2 and 20% O2 at 37 °C. After formation of the MCTSs, each MCTS in a 96-well plate was imaged with a phase contrast microscope (Zeiss Axio Observer D1, Germany) using 10× objective to monitor their color, integrity, diameter, and volume.\nA549R MCTSs (diameters ≈400 μm) were treated by carefully replacing 50% of the medium with drug-supplemented standard medium using an eight-channel pipet. In parallel, 50% of the medium containing solvent was replaced with solvent-free medium for the untreated MCTSs. Three A549R MCTSs were treated per condition and drug concentration; the DMSO volume was less than 1% (v/v). The MCTSs were then allowed to incubate for another 48 h. The cytotoxicities of the Ru(II) complexes toward the MCTSs were measured using ATP concentrations with a Cell TiterGlo kit (Promega). After 30 min of incubation, the MCTSs were carefully transferred into black-sided, flat-bottomed 96-well plates (Corning) and mixed with a pipet for luminescence measurements on an Infinite M200 PRO instrument (TECAN)."}, "[5]": {"system": "A549R cells", "assay": "Intracellular ROS (DCFH-DA staining)", "conditions": "0.5 μM, 12 h", "description": "TrxR is a key enzyme in the regulation of the intracellular redox environment. However, cellular oxidative stress is known to trigger the initiation of apoptotic signaling, which results in cell death. Complex 4 was proven to inhibit the activity of TrxR and could induce severe oxidative stress in A549R cells. To assess the capacity of complex 4 to generate intracellular reactive oxygen species (ROS), A549R cells were treated with different concentrations of complex 4 for 12 h and stained with 2′,7′-dichlorofluorescein diacetate (DCFH-DA)[46]. DCFH-DA is an oxidation-sensitive dye that is specifically detected by measuring the enhanced green fluorescent intensity caused by intracellular ROS. This dye was used to quantify the generation of intracellular ROS. […] These findings were further confirmed with flow cytometric analyses (Fig. 5d).\nThe generation of reactive oxygen species (ROS) in A549R cells was measured using a ROS sensitive fluorescent probe, 2,7-dichlorodihydrofluorescein diacetate (DCFH-DA). […] The levels of intracellular ROS were examined with an inverted fluorescence microscope (Zeiss Axio Observer D1) and flow cytometry (FACSCanto II, BD Biosciences, USA). The excitation wavelength was 485 nm, and the fluorescence was measured at 530 nm. […]"}, "[6]": {"system": "A549R cells", "assay": "Real-time cell growth and proliferation assay (xCELLigence)", "description": "In addition, a real-time cell growth and proliferation assay using an xCELLigence System was utilized to confirm the high toxicity of complex 4 on A549R cells. […] In contrast, A549R cells were killed by treatment with complex 4 in a concentration-dependent manner.\nThis experiment was performed using an xCELLigence RTCA DP system real time cell analyzer (Roche Diagnostics GmbH, Germany). In brief, 80 μL of cell culture media was added to each well of a 16-well plate (E-plate 16, Roche Diagnostics GmbH, Germany). The 16-well plates were then connected to the system and checked for suitable electrical contacts in the real time cell analyzer, and the background impedance was measured for 24 s. Meanwhile, the A549R cells were suspended in cell culture medium and adjusted to 5 × 10^4 cells/mL, and 100 μL of each cell suspension was added to each well of […]. Approximately 24 h after seeding, the A549R cells were in the logarithmic phase of growth, and a wide range of concentrations of complex 4 and cisplatin (100 μM) were added. The cells were automatically monitored every 15 min over 48 h by the xCELLigence system. Data were analyzed using RTCA software (version 1.2) that was supplied with the instrument."}},
  "data": [
    {"substance": "Ru(phen)(bzq)(tbtfpip)(PF6) [Complex 4]", "values": [
      {"measurement": "change in size of A549R MCTSs", "setting": "[1]", "value": "decreased in size over time"},
      {"measurement": "AO/EB staining result", "setting": "[2]", "value": "predominantly induced apoptosis"},
      {"measurement": "IC50", "setting": "[3]", "value": "0.8 to 2.4", "unit": "µM"},
      {"measurement": "IC50", "setting": "[4]", "value": "1.8 ± 0.3", "unit": "µM"},
      {"measurement": "intracellular ROS levels", "setting": "[5]", "value": "increase in ROS"},
      {"measurement": "effect on A549R cell proliferation (xCELLigence)", "setting": "[6]; 0.5 μM", "value": "began to die after a short delay"},
      {"measurement": "effect on A549R cell proliferation (xCELLigence)", "setting": "[6]; 2.0 μM", "value": "rapidly abolished cellular proliferation"}
    ]}
  ]
}
